Measured values published in patent US8088806B2 (Achillion Pharmaceuticals, Inc., priority 2005, dated 2012).

Each molecule was assayed on HCV replicon (assay: Replicon based assay of HCV replication inhibition (NPT ELISA)). Conditions: Hepatitis C virus, Huh-7, 72 h, Table III; Huh-7 HCV replicon-containing cells, three days; read-out: Activity.
Assay type: cell-based, Hepatitis C virus
Summary of the method: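 NPT (neomycin phosphotransferase) content, proportional to replicon replication, quantified by capture ELISA on day four. Before that, replicon-bearing Huh-7 cells in G418-free screening medium were exposed three days at 37° C to compound, typically six doses from 10 to 0.03 micromolar, with equal DMSO across wells.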

First: CCCCCCCc1ccc(Nc2nc(Cc3cccc(F)c3)cs2)cc1 [compound 519, 4-(3-fluorobenzyl)-N-(4-heptylphenyl)thiazol-2-amine]
Second: CCCCCCCCc1ccc(Nc2nc(-c3ccc[n+]([O-])c3)cs2)cc1 [compound 524]
The EC50 of the first is higher: 1 to 10 µM for the first, less than 1 µM for the second.

`CCCCCOc1ccc(Nc2nc(-c3cncc(C#N)c3)cs2)cc1C(F)(F)F` [compound 520, 5-(2-(3-(trifluoromethyl)-4-(pentyloxy)phenylamino)thiazol-4-yl)pyridine-3-carbonitrile] and `CCCCCOc1ccc(Nc2nc(-c3ccc(NC)nc3)cs2)cc1C(F)(F)F` [compound 535, 5-(2-(3-(trifluoromethyl)-4-(pentyloxy)phenylamino)thiazol-4-yl)-N-methylpyridin-2-amine] cannot be ordered by EC50: less than 1 µM for the first, less than 1 µM for the second.

`CCCCCOc1ccc(Nc2nc(-c3ccc[n+]([O-])c3)cs2)cc1C(F)(F)F` [compound 521] and `CCCCCOc1ccc(Nc2nc(-c3cnc4ccccc4c3)cs2)cc1C(F)(F)F` [compound 538, N-(3-(trifluoromethyl)-4-(pentyloxy)phenyl)-4-(quinolin-3-yl)thiazol-2-amine] cannot be ordered by EC50: less than 1 µM for the first, less than 1 µM for the second.

`CCCCCCCCOc1ccc(Nc2nc(-c3ccc[n+]([O-])c3)cs2)cc1` [compound 522] and `CCCCCCCOc1ccc(Nc2nc(-c3ccc[n+]([O-])c3)cs2)cc1` [compound 525] cannot be ordered by EC50: less than 1 µM for the first, less than 1 µM for the second.

`CCCCCCCOc1ccc(Nc2nc(-c3ccc(NC)nc3)cs2)cc1` [compound 523, 5-(2-(4-(heptyloxy)phenylamino)thiazol-4-yl)-N-methylpyridin-2-amine] and `CCCCCCCCOc1ccc(Nc2nc(-c3ccc(NC)nc3)cs2)cc1C(F)(F)F` [compound 536, 5-(2-(3-(trifluoromethyl)-4-(octyloxy)phenylamino)thiazol-4-yl)-N-methylpyridin-2-amine] cannot be ordered by EC50: less than 1 µM for the first, less than 1 µM for the second.

`CCCCCCCCOc1ccc(Nc2nc(-c3ccc(F)nc3)cs2)cc1C(F)(F)F` [compound 526, N-(3-(trifluoromethyl)-4-(octyloxy)phenyl)-4-(6-fluoropyridin-3-yl)thiazol-2-amine] and `CCCCCOc1ccc(Nc2nc(-c3ccc(F)nc3)cs2)cc1F` [compound 527, N-(3-fluoro-4-(pentyloxy)phenyl)-4-(6-fluoropyridin-3-yl)thiazol-2-amine] cannot be ordered by EC50: less than 1 µM for the first, less than 1 µM for the second.

`Fc1ccc(-c2csc(Nc3ccc(OCCCC4CCCC4)c(C(F)(F)F)c3)n2)cn1` [compound 528, N-(4-(3-cyclopentylpropoxy)-3-(trifluoromethyl)phenyl)-4-(6-fluoropyridin-3-yl)thiazol-2-amine] and `Fc1ccc(-c2csc(Nc3ccc(OCC4CCCCC4)c(F)c3)n2)cn1` [compound 530, N-(4-(cyclohexylmethoxy)-3-fluorophenyl)-4-(6-fluoropyridin-3-yl)thiazol-2-amine] cannot be ordered by EC50: less than 1 µM for the first, less than 1 µM for the second.

`CCCCCN(C)c1ccc(Nc2nc(-c3ccc(F)nc3)cs2)cc1C(F)(F)F` [compound 529, 2-(trifluoromethyl)-N4-(4-(6-fluoropyridin-3-yl)thiazol-2-yl)-N1-methyl-N1-pentylbenzene-1,4-diamine] and `CCCC/C=C\CCOc1ccc(Nc2nc(-c3ccc(C)nc3)cs2)cc1C(F)(F)F` [compound 532, N-(4-((Z)-oct-3-enyloxy)-3-(trifluoromethyl)phenyl)-4-(6-methylpyridin-3-yl)thiazol-2-amine] cannot be ordered by EC50: less than 1 µM for the first, less than 1 µM for the second.

`CCCC/C=C\CCOc1ccc(Nc2nc(-c3cccnc3)cs2)cc1C(F)(F)F` [compound 531, N-(4-((Z)-oct-3-enyloxy)-3-(trifluoromethyl)phenyl)-4-(pyridin-3-yl)thiazol-2-amine] and `CCCC/C=C\CCOc1ccc(Nc2nc(-c3ccc(F)cc3)cs2)cc1C(F)(F)F` [compound 533, N-(4-((Z)-oct-3-enyloxy)-3-(trifluoromethyl)phenyl)-4-(4-fluorophenyl)thiazol-2-amine] cannot be ordered by EC50: less than 1 µM for the first, less than 1 µM for the second.

`CCCCCOc1ccc(Nc2nc(-c3ccc4c(c3)OCO4)cs2)cc1C(F)(F)F` [compound 534, 4-(benzo[d][1,3]dioxol-6-yl)-N-(3-(trifluoromethyl)-4-(pentyloxy)phenyl)thiazol-2-amine] and `CNc1ccc(-c2csc(Nc3ccc(OC4CCCC4)c(C(F)(F)F)c3)n2)cn1` [compound 537, 5-(2-(4-(cyclopentyloxy)-3-(trifluoromethyl)phenylamino)thiazol-4-yl)-N-methylpyndin-2-amine] cannot be ordered by EC50: less than 1 µM for the first, less than 1 µM for the second.

Same assay, conditions: Hepatitis C virus, replicon based assay of HCV replication inhibition; Table II; read-out: Activity

`Fc1ccc(-c2csc(Nc3ccc(OCCCC4CCCC4)c(C(F)(F)F)c3)n2)cc1` [compound 494, N-(4-(3-cyclopentylpropoxy)-3-(trifluoromethyl)phenyl)-4-(4-fluorophenyl)thiazol-2-amine] and `Cc1ccc(-c2csc(Nc3ccc(OCCCC4CCCC4)c(C(F)(F)F)c3)n2)cn1` [compound 496, N-(4-(3-cyclopentylpropoxy)-3-(trifluoromethyl)phenyl)-4-(6-methylpyridin-3-yl)thiazol-2-amine] cannot be ordered by EC50: less than 1 µM for the first, less than 1 µM for the second.

`FC(F)(F)c1cc(Nc2nc(-c3cccnc3)cs2)ccc1OCCCC1CCCC1` [compound 495, N-(4-(3-cyclopentylpropoxy)-3-(trifluoromethyl)phenyl)-4-(pyridin-3-yl)thiazol-2-amine] and `CCCCCOc1ccc(Nc2nc(-c3cncnc3)cs2)cc1C(F)(F)F` [compound 505, N-(3-(trifluoromethyl)-4-(pentyloxy)phenyl)-4-(pyrimidin-5-yl)thiazol-2-amine] cannot be ordered by EC50: less than 1 µM for the first, less than 1 µM for the second.

`CCCCCCCCOc1ccc(Nc2nc(Cc3cccnc3)cs2)cn1` [compound 497, 6-(octyloxy)-N-(4-((pyridin-3-yl)methyl)thiazol-2-yl)pyridin-3-amine] and `CCCCCCCCOc1ccc(Nc2nc(Cc3cccc(F)c3)cs2)cn1` [compound 498, N-(4-(3-fluorobenzyl)thiazol-2-yl)-6-(octyloxy)pyridin-3-amine] fall in the same range of EC50: 1 to 10 µM for the first, 1 to 10 µM for the second.

First: CCCCCCCCN(C)c1ccc(Nc2nc(Cc3cccc(F)c3)cs2)cc1 [compound 499, N^1-(4-(3-fluorobenzyl)thiazol-2-yl)-N^4-methyl-N^4-octylbenzene-1,4-diamine]
Second: CCCCCCCCN(C)c1ccc(Nc2nc(Cc3cccnc3)cs2)cc1 [compound 503, N^1-methyl-N^1-octyl-N^4-(4-((pyridin-3-yl)methyl)thiazol-2-yl)benzene-1,4-diamine]
The EC50 of the first is lower: 1 to 10 µM for the first, greater than 10 µM for the second.

First: CCCCCCCCN(C)c1ccc(Nc2nc(Cc3cccnc3)cs2)cc1C(F)(F)F [compound 500, 2-(trifluoromethyl)-N^1-methyl-N^1-octyl-N^4-(4-((pyridin-3-yl)methyl)thiazol-2-yl)benzene-1,4-diamine]
Second: CCCCCCCCN(C)c1ccc(Nc2nc(Cc3cccc(F)c3)cs2)cc1C(F)(F)F [compound 518, N^4-(4-(3-fluorobenzyl)thiazol-2-yl)-2-(trifluoromethyl)-N^1-methyl-N^1-octylbenzene-1,4-diamine]
The EC50 of the first is lower: less than 1 µM for the first, 1 to 10 µM for the second. The first is the more potent here.

Compared with `CCCCCCCCOc1ccc(Nc2nc(Cc3cccnc3)cs2)cc1` [compound 501, N-(4-(octyloxy)phenyl)-4-((pyridin-3-yl)methyl)thiazol-2-amine], `CCCCCCCCOc1ccc(Nc2nc(Cc3ccccc3)cs2)cc1` [compound 513, 4-benyl-N-(4-(octyloxy)phenyl)thiazol-2-amine] is higher in EC50: 1 to 10 µM for the first, greater than 10 µM for the second.

First: CCCCCCCc1ccc(Nc2nc(Cc3cccnc3)cs2)cc1 [compound 504, N-(4-heptylphenyl)-4-((pyridin-3-yl)methyl)thiazol-2-amine]
Second: CCCCCCCc1ccc(Nc2nc(Cc3ccccc3)cs2)cc1 [compound 515, 4-benzyl-N-(4-heptylphenyl)thiazol-2-amine]
The EC50 of the first is lower: 1 to 10 µM for the first, greater than 10 µM for the second.

`Fc1cc(Nc2nc(-c3cncnc3)cs2)ccc1OCC1CCCCC1` [compound 506, N-(4-(cyclohexylmethoxy)-3-fluorophenyl)-4-(pyrimidin-5-yl)thiazol-2-amine] and `Cc1ccc(-c2csc(Nc3ccc(OCC4CCCCC4)c(F)c3)n2)cn1` [compound 508, N-(4-(cyclohexylmethoxy)-3-fluorophenyl)-4-(6-methylpyridin-3-yl)thiazol-2-amine] cannot be ordered by EC50: less than 1 µM for the first, less than 1 µM for the second.

`CCCCCCCCOc1ccc(Nc2nc(-c3cncnc3)cs2)cc1` [compound 507, N-(4-(octyloxy)phenyl)-4-(pyrimidin-5-yl)thiazol-2-amine] and `CCCCCCCCOc1ccc(Nc2nc(-c3ccc(C#N)nc3)cs2)cc1` [compound 512, 5-(2-(4-(octyloxy)phenylamino)thia-zol-4-yl)pyridine-2-carbonitrile] cannot be ordered by EC50: less than 1 µM for the first, less than 1 µM for the second.

Compared with `Fc1ccc(-c2csc(Nc3ccc(OCC4CCCCC4)c(F)c3)n2)cc1` [compound 509, N-(4-(cyclohexylmethoxy)-3-fluorophenyl)-4-(4-fluorophenyl)thiazol-2-amine], `N#Cc1ccc(-c2csc(Nc3ccc(OCC4CCCCC4)c(F)c3)n2)cn1` [compound 511, 5-(2-(4-(cyclohexylmethoxy)-3-fluorophenylamino)thiazol-4-yl)pyridine-2-carbonitrile] is higher in EC50: less than 1 µM for the first, greater than 10 µM for the second.

Compared with `CCCCCOc1ccc(Nc2nc(-c3ccc(C#N)nc3)cs2)cc1C(F)(F)F` [compound 510, 5-(2-(3-(trifluoromethyl)-4-(pentyloxy)phenylamino)thia-zol-4-yl)pyridin-2-carbonitrile], `CCCCCOc1ccc(Nc2nc(Cc3cccc(F)c3)cs2)cc1C(F)(F)F` [compound 517, 4-(3-fluorobenzyl)-N-(3-(trifluoromethyl)-4-(pentyloxy)phenyl)thiazol-2-amine] is higher in EC50: less than 1 µM for the first, 1 to 10 µM for the second. The first is the more potent here.

`CCCCCOc1ccc(Nc2nc(Cc3ccccc3)cs2)cc1C(F)(F)F` [compound 514, 4-benzyl-N-(3-(trifluoromethyl)-4-(pentyloxy)phenyl)thiazol-2-amine] and `CCCCCCCCOc1ccc(Nc2nc(Cc3cccc(F)c3)cs2)cc1` [compound 516, 4-(3-fluorobenzyl)-N-(4-(octyloxy)phenyl)thiazol-2-amine] cannot be ordered by EC50: greater than 10 µM for the first, greater than 10 µM for the second.
